Experimental findings from US10905672B2, “Combination of baclofen, acamprosate and medium chain triglycerides for the treatment of neurological disorders” (PHARNEXT, priority 2014, dated 2021) are described below.

Test [1] concerns Abeta 25-35 intoxicated mice. The test is described as follows: Spontaneous alternation performance, Y-maze test (spatial working memory) after icv Abeta 25-35. The format is in vivo, Swiss mice. The conditions noted are these: tested day 7. The procedure: (§1) Male Swiss mice are used throughout the study. Animals are housed in plastic cages, with free access to laboratory chow and water, except during behavioral experiments, and kept in a regulated environment, under a 12 h light/dark cycle (light on at 8:00 a.m.). Experiments are carried out in a soundproof and air-regulated experimental room to which mice have been habituated at least 30 min before each experiment.
(§2) Drug(s) is/are administered daily by gavage (per os). The Abeta 25-35 peptide and scrambled Abeta 25-35 peptide (control) have been dissolved in sterile bidistilled water, and stored at −20° C. until use. The Abeta peptides are then administered intracerebroventricularly (icy). In brief, each mouse is anesthetized lightly with ether, and a gauge stainless-steel needle is inserted unilaterally 1 mm to the right of the midline point equidistant from each eye, at an equal distance between the eyes and the ears and perpendicular to the plane of the skull. Peptides or vehicle are delivered gradually within approximately 3 s. […] The administration site is checked by injecting Indian ink in preliminary experiments. Neither insertion of the needle nor injection of the vehicle has a significant influence on survival, behavioral responses or cognitive functions.
On day −1, i.e., 24 h before the Abeta 25-35 peptide injection, drugs, candidate combinations, baclofen acamprosate mix, or the vehicle solution are administered per os by gavage twice daily (at 8:00 a.m. and 6:00 p.m.), and caprylic triglyceride is administered per os by gavage once daily (at 8:00 a.m.).
On day 0 (at 10:00 a.m.), mice are injected icy with Abeta 25-35 peptide or scrambled Abeta 25-35 peptide (control) in a final volume of 3 μL (3 mM).
Between day 0 and day 7, drugs, drug combinations or the vehicle solution are administered per os by gavage once or twice daily (at 8:00 a.m. for caprylic triglyceride or at 8:00 a.m. and 6:00 p.m. for baclofen and acamprosate). As a positive control, one animal group receives donepezil (reference compound—1 mg/kg/day) per os by gavage in a single injection (at 8:00 a.m.). Drugs are solubilized in water and freshly prepared just before each gavage administration.
On day 7, all animals are tested for spontaneous alternation performance in the Y-maze test, an index of spatial working memory (short-term memory).
On day 7, all animals are tested for spontaneous alternation performance in the Y-maze, an index of spatial working memory. The Y-maze is made of grey polyvinylchloride. Each arm is 40 cm long, 13 cm high, 3 cm wide at the bottom, 10 cm wide at the top, and converges at an equal angle. Each mouse is placed at the end of one arm and allowed to move freely through the maze during an 8 min session. The series of arm entries, including possible returns into the same arm, are checked visually. An alternation is defined as entries into all three arms on consecutive occasions. The number of maximum alternations is therefore the total number of arm entries minus two and the percentage of alternation is calculated as (actual alternations/maximum alternations)×100. Parameters include the percentage of alternation (memory index) and total number of arm entries (exploration index). Animals that show an extreme behavior (alternation percentage <25% or >85% or number of arm entries <10) are discarded. Usually, this accounts for 0-5% of the animals. […]

Test [2] concerns Abeta 25-35 intoxicated mice. The test is described as follows: Step-through passive avoidance test (contextual long-term memory) after icv Abeta 25-35. It counts as in vivo, Swiss mice. The protocol:
as §1
as §2, with “functions. […]” for “functions.”
On days 8 and 9, the contextual long-term memory of the animals is assessed using the step-through type passive avoidance procedure.
The apparatus is a two-compartment (15×20×15 cm high) box with one compartment being illuminated with white polyvinylchloride walls and the other compartment darkened with black polyvinylchloride walls and a grid floor. […] The step-through latency, that is, the latency spent to enter the darkened compartment, and the number of vocalizations is recorded. […] After 5 s the door is raised, and the step-through latency and the escape latency, i.e., the time spent to return into the white compartment, are recorded up to 300 s.

The structures appear in SMILES notation. “Also recorded” adds a separate entry of the source.

For `NCC(CC(=O)O)c1ccc(Cl)cc1` (centres unmarked) [Baclofen, baclofen], the “effect on working memory (percentage of alternation) compared to Abeta 25-35 intoxicated animals” value in test [1] (baclofen alone, 480 μg/kg/bid per os, FIG. 1-B) is recorded as “does not improve working memory”; in test [1] (baclofen alone, 480 μg/kg/bid per os, FIG. 1-B, listed as baclofen), “No significant effect”. Further, the “effect on memory defects (step-through latency) compared to Abeta 25-35 intoxicated animals” value in test [2] (baclofen monotherapy, 480 μg/kg/bid per os, FIG. 2-B) was “does not provide any improvement”.
Turning to `CCCCCCCC(=O)OCC(COC(=O)CCCCCCC)OC(=O)CCCCCCC` [C8 MCT, caprylic triglyceride], the “effect on working memory (percentage of alternation) compared to Abeta 25-35 intoxicated animals” value is on record as “does not improve working memory” in test [1] (caprylic triglyceride alone, 0.555, 1.66 and 5 g/kg/d per os once daily, FIG. 1-A); “No significant effect” in test [1] (caprylic triglyceride alone, 0.555, 1.66 and 5 g/kg/d per os once daily, FIG. 1-A, listed as caprylic triglyceride). The “effect on memory defects (step-through latency) compared to Abeta 25-35 intoxicated animals” value in test [2] (C8 MCT alone, 0.555, 1.66 and 5 g/kg/d per os, FIG. 2-A) is on record as “does not provide any statistically significant effect”.
`CC(=O)NCCCS(=O)(=O)O` [acamprosate]: the “effect on working memory (percentage of alternation) compared to Abeta 25-35 intoxicated animals” value in test [1] (acamprosate alone, 32 μg/kg/bid per os, FIG. 1-B) is “No significant effect; also recorded: does not improve working memory”. The “effect on memory defects (step-through latency) compared to Abeta 25-35 intoxicated animals” value in test [2] (acamprosate monotherapy, 32 μg/kg/bid per os, FIG. 2-B) was “does not provide any improvement”.
